In patent publication US20230102554A1 (GB002, INC., priority 2019, published 2023):

Columns and labels:
[1] = target: T1, Human PDGFRα, cytoplasmic domain (GST-PDGFRα) (Homo sapiens, UniProt P16234); test: Human PDGFRα biochemical inhibition assay (off-chip Mobility Shift Assay)
T1 construct: made in house

[2] = target: T2, Human PDGFRβ, cytoplasmic domain (GST-PDGFRβ) (Homo sapiens, UniProt P09619); test: Human PDGFRβ biochemical inhibition assay (off-chip Mobility Shift Assay)
T2 construct: made in house
Summary of the method: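 GST-tagged cytoplasmic domain (aa 557-1106) from baculovirus was incubated 1 h at room temperature with compound, CSKtide, ATP at Km and Mg²⁺ in HEPES buffer, pH 7.5. Phosphorylated and unphosphorylated peptide were separated by off-chip mobility shift, and the product ratio P/(P+S) gave percent inhibition.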

T2 sequence (P09619 with tags, fused parts or gaps): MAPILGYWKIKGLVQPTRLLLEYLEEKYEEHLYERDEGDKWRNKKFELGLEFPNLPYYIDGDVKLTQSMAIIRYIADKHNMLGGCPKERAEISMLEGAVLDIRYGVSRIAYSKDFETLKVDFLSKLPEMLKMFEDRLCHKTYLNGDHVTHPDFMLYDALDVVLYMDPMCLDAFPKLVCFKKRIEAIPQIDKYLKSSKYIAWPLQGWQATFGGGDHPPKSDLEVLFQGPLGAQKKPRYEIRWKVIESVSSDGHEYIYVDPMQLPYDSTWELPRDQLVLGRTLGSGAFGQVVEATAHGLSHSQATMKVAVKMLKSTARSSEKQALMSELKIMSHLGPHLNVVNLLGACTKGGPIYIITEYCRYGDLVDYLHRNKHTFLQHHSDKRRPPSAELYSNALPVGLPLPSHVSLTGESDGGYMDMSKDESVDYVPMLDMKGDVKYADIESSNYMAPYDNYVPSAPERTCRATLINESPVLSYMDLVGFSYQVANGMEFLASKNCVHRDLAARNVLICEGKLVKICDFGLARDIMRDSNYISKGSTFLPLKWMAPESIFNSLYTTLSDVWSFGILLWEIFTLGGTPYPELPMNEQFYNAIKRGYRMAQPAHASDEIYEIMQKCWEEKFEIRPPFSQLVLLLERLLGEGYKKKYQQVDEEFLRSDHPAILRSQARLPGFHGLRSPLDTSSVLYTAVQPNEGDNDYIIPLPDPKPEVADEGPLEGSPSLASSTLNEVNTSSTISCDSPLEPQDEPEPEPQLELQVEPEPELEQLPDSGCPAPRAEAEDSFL
T1 sequence (P16234 550-1089 T674I): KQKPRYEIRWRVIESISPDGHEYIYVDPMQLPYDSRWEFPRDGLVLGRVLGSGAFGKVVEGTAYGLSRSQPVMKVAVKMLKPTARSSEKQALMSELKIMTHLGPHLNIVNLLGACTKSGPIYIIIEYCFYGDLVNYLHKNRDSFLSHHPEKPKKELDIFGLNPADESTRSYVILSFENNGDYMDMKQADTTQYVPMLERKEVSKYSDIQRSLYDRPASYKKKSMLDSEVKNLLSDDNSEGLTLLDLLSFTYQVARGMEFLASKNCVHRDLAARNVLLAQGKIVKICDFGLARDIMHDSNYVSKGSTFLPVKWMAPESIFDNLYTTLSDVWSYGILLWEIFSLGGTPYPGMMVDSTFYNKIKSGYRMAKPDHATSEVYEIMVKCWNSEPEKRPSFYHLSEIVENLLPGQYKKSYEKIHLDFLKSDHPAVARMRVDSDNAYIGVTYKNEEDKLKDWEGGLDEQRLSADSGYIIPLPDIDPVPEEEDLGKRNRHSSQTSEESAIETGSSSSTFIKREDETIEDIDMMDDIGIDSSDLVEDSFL

SMILES | IC50 [1] | IC50 [2]
CC(=O)Oc1ccc(C(=O)Nc2cccc([C@H](C)Nc3cnc4cnn(C)c4n3)c2)cc1 [Compound 214, (S)-4-((3-(1-((1-methyl-1H-pyrazolo[3,4-b]pyrazin-6-yl)amino)ethyl)phenyl)carbamoyl) phenyl acetate] | < 300 nM | < 300 nM
CCn1cc2ncc(N[C@@H](C)c3cc(NC(=O)Cc4ccc(C)nc4)ccc3C)nc2n1 [Compound 664, (S)-N-(3-(1-((2-ethyl-2H-pyrazolo[3,4-b]pyrazin-6-yl)amino)ethyl)-4-methylphenyl)-2-(6-methylpyridin-3-yl) acetamide] | < 300 nM | ≥ 1000 nM
C[C@H](Nc1cnc2[nH]ccc2n1)c1cc(NC(=O)c2cnn(C3CCC3)c2)ccc1F [Compound 597, (S)-N-(3-(1-((5H-pyrrolo[2,3-b]pyrazin-2-yl)amino)ethyl)-4-fluorophenyl)-1-cyclobutyl-1H-pyrazole-4-carboxamide] | < 300 nM | < 300 nM
Cc1cc(C(=O)Nc2ccc(F)c([C@H](C)Nc3cnc4cnn(C)c4n3)c2)ccc1CN1CCN(C)CC1 [Compound 228, (S)-N-(4-fluoro-3-(1-((1-methyl-1H-pyrazolo[3,4-b]pyrazin-6-yl)amino)ethyl)phenyl)-3-methyl-4-((4-methylpiperazin-1-yl)methyl)benzamide] | < 300 nM | < 300 nM
CCn1cc2ncc(N[C@@H](C)c3cccc(NC(=O)c4cnc(C(F)F)s4)c3)nc2n1 [Compound 319, (S)-2-(difluoromethyl)-N-(3-(1-((2-ethyl-2H-pyrazolo[3,4-b]pyrazin-6-yl)amino)ethyl)phenyl)thiazole-5-carboxamide] | < 300 nM | < 300 nM
CCc1cncc(C(=O)Nc2cccc([C@H](C)Nc3cnc4cn[nH]c4n3)c2)c1 [Compound 91, (S)-N-(3-(1-((1H-pyrazolo[3,4-b]pyrazin-6-yl)amino)ethyl)phenyl)-5-ethylnicotinamide] | < 300 nM | < 300 nM
C[C@H](Nc1cnc2cnn(C)c2n1)c1cccc(NC(=O)c2cncc(CO)c2)c1 [Compound 106, (S)-5-(hydroxymethyl)-N-(3-(1-((1-methyl-1H-pyrazolo[3,4-b]pyrazin-6-yl)amino)ethyl)phenyl)nicotinamide] | < 300 nM | 300 to 1000 nM
Cc1cc(C(=O)Nc2cccc([C@H](C)Nc3cnc4cnn(C)c4n3)c2)ccc1C(=O)OCCN1CCCC1 [Compound 268, 2-(pyrrolidin-1-yl)ethyl (S)-2-methyl-4-((3-(1-((1-methyl-1H-pyrazolo[3,4-b]pyrazin-6-yl)amino)ethyl)phenyl)carbamoyl) benzoate] | < 300 nM | < 300 nM
CCn1cc2ncc(N[C@@H](C)c3cccc(NC(=O)c4ccc(N5CCOCC5)c(C)c4)c3)nc2n1 [Compound 386, (S)-N-(3-(1-((2-ethyl-2H-pvrazolo[3,4-b]pyrazin-6-yl)amino)ethyl)phenyl)-3-methyl-4-morpholinobenzamide] | < 300 nM | < 300 nM
CCn1cc2ncc(N[C@@H](C)c3cccc(NC(=O)Nc4cnn(CC(C)C)c4)c3)nc2n1 [Compound 740, (S)-1-(3-(1-((2-ethyl-2H-pyrazolo[3,4-b]pyrazin-6-yl)amino)ethyl)phenyl)-3-(1-isobutyl-1H-pyrazol-4-yl)urea] | < 300 nM | 300 to 1000 nM
CCn1cc2ncc(N[C@@H](C)c3cccc(NC(=O)Nc4cnc(N(C)C)c(C)c4)c3)nc2n1 [Compound 742, (S)-1-(6-(dimethylamino)-5-methylpyridin-3-yl)-3-(3-(1-((2-ethyl-2H-pyrazolo[3,4-b]pyrazin-6-yl)amino)ethyl)phenyl)urea] | < 300 nM | < 300 nM
C[C@H](Nc1cnc2cnn(C)c2n1)c1cccc(NC(=O)c2cnn(C(C)(C)C)c2)c1 [Compound 148, (S)-1-(tert-butyl)-N-(3-(1-((1-methyl-1H-pyrazolo[3,4-b]pyrazin-6-yl)amino)ethyl)phenyl)-1H-pyrazole-4-carboxamide] | < 300 nM | < 300 nM
C[C@H](Nc1cnc2cnn(C)c2n1)c1cccc(NC(=O)c2ccc3c(c2)OCCO3)c1 [Compound 68, (S)-N-(3-(1-((1-methyl-1H-pyrazolo[3,4-b]pyrazin-6-yl)amino)ethyl)phenyl)-2,3-dihydrobenzo[b][1,4]dioxine-6-carboxamide] | < 300 nM | < 300 nM
Cc1cc2ncc(N[C@@H](C)c3cccc(NC(=O)c4cnn(C5CCC5)c4)c3)nc2s1 [Compound 609, (S)-1-cyclobutyl-N-(3-(1-((6-methylthieno[2,3-b]pyrazin-3-yl)amino)ethyl)phenyl)-1H-pyrazole-4-carboxamide] | < 300 nM | < 300 nM
CCn1cc2ncc(N[C@@H](C)c3cc(NC(=O)c4ccc(CN5CCCC5)c(C)c4)ccc3F)nc2n1 [Compound 470, (S)-N-(3-(1-((2-ethyl-2H-pyrazolo[3,4-b]pyrazin-6-yl)amino)ethyl)-4-fluorophenyl)-3-methyl-4-(pyrrolidin-1-ylmethyl)benzamide] | < 300 nM | < 300 nM
Cc1cc2ncc(N[C@@H](C)c3cc(NC(=O)c4ccc(OC(F)F)nc4)ccc3F)nc2s1 [Compound 611, (S)-6-(difluoromethoxy)-N-(4-fluoro-3-(1-((6-methylthieno[2,3-b]pyrazin-3-yl)amino)ethyl)phenyl) nicotinamide] | < 300 nM | < 300 nM
CCn1cc2ncc(N[C@@H](C)c3cccc(NC(=O)c4ccc(CN5CC(F)C5)c(C)c4)c3)nc2n1 [Compound 497, (S)-N-(3-(1-((2-ethyl-2H-pyrazolo[3,4-b]pyrazin-6-yl)amino)ethyl)phenyl)-4-((3-fluoroazetidin-1-yl)methyl)-3-methylbenzamide] | < 300 nM | < 300 nM
CCn1cc2ncc(N[C@@H](C)c3cccc(NC(=O)c4ccc(N5CCOCC5)c(Cl)c4)c3)nc2n1 [Compound 360, (S)-3-chloro-N-(3-(1-((2-ethyl-2H-pyrazolo[3,4-b]pyrazin-6-yl)amino)ethyl)phenyl)-4-morpholinobenzamide] | < 300 nM | < 300 nM
Cc1cc(C(=O)Nc2cccc([C@H](C)Nc3cnc4cnn(C)c4n3)c2)ccc1O [Compound 240, (S)-4-hydroxy-3-methyl-N-(3-(1-((1-methylH-pyrazolo[3,4-b]pyrazin-6-yl)amino)ethyl)phenyl)benzamide] | < 300 nM | < 300 nM
CCn1cc2ncc(N[C@@H](C)c3cccc(NC(=O)c4ccc(CN5CC6(COC6)C5)c(Cl)c4)c3)nc2n1 [Compound 415, (S)-4-((2-oxa-6-azaspiro[3.3]heptan-6-yl)methyl)-3-chloro-N-(3-(1-((2-ethyl-2H-pyrazolo[3,4-b]pyrazin-6-yl)amino)ethyl)phenyl)benzamide] | < 300 nM | < 300 nM
CCn1cc2ncc(N[C@@H](C)c3cc(NC(=O)c4cnc(C)s4)ccc3F)nc2n1 [Compound 307, (S)-N-(3-(1-((2-ethyl-2H-pyrazolo[3,4-b]pyrazin-6-yl)amino)ethyl)-4-fluorophenyl)-2-methylthiazole-5-carboxamide] | < 300 nM | < 300 nM
C[C@H](Nc1cnc2cnn(C)c2n1)c1cccc(NC(=O)c2cncc(O)c2)c1 [Compound 241, (S)-5-hydroxy-N-(3-(1-((1-methyl-1H-pyrazolo[3,4-b]pyrazin-6-yl)amino)ethyl)phenyl)nicotinamide] | < 300 nM | 300 to 1000 nM
CSc1ccc(C(=O)Nc2cccc([C@H](C)Nc3cnc4cnn(C)c4n3)c2)cc1C [Compound 222, (S)-3-methyl-N-(3-(1-((1-methyl-1H-pyrazolo[3,4-b]pyrazin-6-yl)amino)ethyl)phenyl)-4-(methylthio)benzamide] | < 300 nM | < 300 nM
Cc1cncc(C(=O)Nc2cccc([C@H](C)Nc3cnc4[nH]cc(C)c4n3)c2)c1 [Compound 15, (S)-5-methyl-N-(3-(1-((7-methyl-5H-pyrrolo[2,3-b]pyrazin-2-yl)amino)ethyl)phenyl)nicotinamide] | < 300 nM | < 300 nM
Cc1n[nH]c2ncc(N[C@@H](C)c3cccc(NC(=O)c4cnn(C5CC5)c4)c3)nc12 [Compound 543, (S)-1-cyclopropyl-N-(3-(1-((3-methyl-1H-pyrazolo[3,4-b]pyrazin-5-yl)amino)ethyl)phenyl)-1H-pyrazole-4-carboxamide] | < 300 nM | < 300 nM
CCNc1ncc(C(=O)Nc2ccc(C)c([C@H](C)Nc3cnc4cn(CC)nc4n3)c2)cc1C [Compound 513, (S)-N-(3-(1-((2-ethyl-2H-pyrazolo[3,4-b]pyrazin-6-yl)amino)ethyl)-4-methylphenyl)-6-(ethylamino)-5-methylnicotinamide] | < 300 nM | < 300 nM
CCn1cc2ncc(N[C@@H](C)c3cccc(NC(=O)Cc4ccncc4)c3)nc2n1 [Compound 644, (S)-N-(3-(1-((2-ethyl-2H-pyrazolo[3,4-b]pyrazin-6-yl)amino)ethyl)phenyl)-2-(pyridin-4-yl)acetamide] | ≥ 1000 nM | ≥ 1000 nM
CCn1cc2ncc(N[C@@H](C)c3cccc(NC(=O)Cc4ccc(F)cn4)c3)nc2n1 [Compound 647, (S)-N-(3-(1-((2-ethyl-2H-pyrazolo[3,4-b]pyrazin-6-yl)amino)ethyl)phenyl)-2-(5-fluoropyridin-2-yl)acetamide] | < 300 nM | ≥ 1000 nM
CCOc1ncc(C(=O)Nc2cccc([C@H](C)Nc3cnc4cnn(C)c4n3)c2)cc1C [Compound 129, (S)-6-ethoxy-5-methyl-N-(3-(1-((1-methyl-1H-pyrazolo[3,4-b]pyrazin-6-yl)amino)ethyl)phenyl)nicotinamide] | < 300 nM | < 300 nM
Cc1cc(C(=O)Nc2cccc([C@H](C)Nc3cnc4[nH]cc(C)c4n3)c2)cnc1C(F)(F)F [Compound 559, (S)-5-methyl-N-(3-(1-((7-methyl-5H-pyrrolo[2,3-b]pyrazin-2-yl)amino)ethyl)phenyl)-6-(trifluoromethyl) nicotinamide] | < 300 nM | < 300 nM
